The results in this text go back to PubChem BioAssay AID1645862 (Buhrlage Lab, Dana-Farber Cancer Institute and Novartis …, 2021).

Calls of active or inactive are those of the source. How the calls were made is not given here. A value given as a limit tells only on which side of the number the result lay.

The term IC50 denotes the concentration needed to halve the response being measured.

Sequence of Ubiquitin carboxyl-terminal hydrolase 8 (Homo sapiens) (P40818 whole entry, looked up): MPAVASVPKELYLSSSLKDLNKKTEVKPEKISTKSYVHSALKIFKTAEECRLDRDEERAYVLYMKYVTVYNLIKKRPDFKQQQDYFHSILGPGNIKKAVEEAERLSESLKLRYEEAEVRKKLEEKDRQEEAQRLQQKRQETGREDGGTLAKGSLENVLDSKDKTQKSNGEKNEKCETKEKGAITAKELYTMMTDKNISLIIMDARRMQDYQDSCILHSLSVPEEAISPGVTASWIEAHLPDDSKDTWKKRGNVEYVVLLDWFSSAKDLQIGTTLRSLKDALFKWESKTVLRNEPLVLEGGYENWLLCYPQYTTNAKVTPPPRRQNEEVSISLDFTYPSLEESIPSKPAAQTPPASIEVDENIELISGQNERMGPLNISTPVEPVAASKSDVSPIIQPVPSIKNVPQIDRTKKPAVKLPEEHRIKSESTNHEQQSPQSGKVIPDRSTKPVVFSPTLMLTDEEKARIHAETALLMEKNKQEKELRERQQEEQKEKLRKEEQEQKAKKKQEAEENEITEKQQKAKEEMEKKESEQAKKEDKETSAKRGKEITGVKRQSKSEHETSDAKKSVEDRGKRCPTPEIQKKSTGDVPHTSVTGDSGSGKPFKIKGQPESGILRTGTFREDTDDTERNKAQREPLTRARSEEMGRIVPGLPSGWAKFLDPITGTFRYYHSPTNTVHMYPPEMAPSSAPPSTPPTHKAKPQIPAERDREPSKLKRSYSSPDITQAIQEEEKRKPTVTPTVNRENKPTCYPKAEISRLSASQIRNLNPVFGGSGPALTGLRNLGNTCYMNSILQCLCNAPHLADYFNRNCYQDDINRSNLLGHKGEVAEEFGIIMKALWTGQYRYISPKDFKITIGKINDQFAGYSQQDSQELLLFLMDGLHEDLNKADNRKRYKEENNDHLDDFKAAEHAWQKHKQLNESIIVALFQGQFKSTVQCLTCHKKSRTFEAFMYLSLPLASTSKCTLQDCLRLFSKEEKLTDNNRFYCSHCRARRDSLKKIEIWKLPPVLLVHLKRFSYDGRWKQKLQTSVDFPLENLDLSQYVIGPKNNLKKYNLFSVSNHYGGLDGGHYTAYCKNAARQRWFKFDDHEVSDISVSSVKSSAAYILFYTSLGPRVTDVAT

This test concerns the target Ubiquitin carboxyl-terminal hydrolase 8 (Homo sapiens) (UniProt P40818). Put plainly: Ubiquitin-specific protease 8 inhibitors, concentration-effect, biochemical, validation of initial actives (AID 1645862).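 Further: potency reflects inhibition of USP8 cleavage of a ubiquitin rhodamine substrate.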 The conditions noted are these: recombinant USP8 deubiquitinase activity assay.
`COc1ccc(CCNC(=O)Cn2c(=O)c3sccc3n(Cc3cccc([N+](=O)[O-])c3)c2=O)cc1OC`: the IC50 was > 40 µM (inactive).

In the case of `CC/C=C\C/C=C\C/C=C\CCCCCCCC(=O)O`, the IC50 was 17.7 µM.

`Cc1ccccc1NC(=O)CSC1=NC2(CCCCC2)Nc2ccccc21`: the IC50 was > 40 µM (inactive).

Take `Cc1ccc(S(=O)(=O)Nc2nc(-c3ccc4c(c3)NC(=O)C(C)O4)c(C)s2)cc1` (stereo not given): the IC50 was > 40 µM (inactive).

Regarding `O=C(c1cnccn1)N1CC[C@@H]2CNS(=O)(=O)[C@@H]2CC1`, the IC50 was > 40 µM (inactive).

`Cn1c(=O)c2nc(-c3ccc(Cl)cc3)nnc2n(C)c1=O`: the IC50 is 0.734 µM.

As for `C[C@@H]1OC2=C(C(=O)c3cccc(O)c3C2=O)[C@H](O)[C@@H]1O`, the IC50 was 0.825 µM.

In the case of `O=C(Nc1cccc([N+](=O)[O-])c1)Nc1ccc2snnc2c1`, the IC50 was 14.8 µM.

As to `Cc1ccc(-c2cnc(C3CC3)o2)cc1S(=O)(=O)Nc1ccc(F)c(Cl)c1`, the IC50 was > 40 µM (inactive).

As to `Cc1nnc(-c2cc(S(=O)(=O)N3CCN(c4ccc(F)cc4)CC3)c[nH]2)o1`, the IC50 is > 40 µM (inactive).

Turning to `O=C(Cn1c(=O)n(CC2CCC(C(=O)NCCc3ccccc3)CC2)c(=O)c2ccccc21)NCc1ccco1` (stereo not given), the IC50 is > 40 µM (inactive).

Consider `COc1cc2c(c(OC)c1OC)-c1ccc(NCCc3cccc(F)c3)c(=O)cc1[C@@H](NC(C)=O)CC2`, for which the IC50 is > 40 µM (inactive).

Turning to `COc1ccc(NC(=O)Cn2cc(C(=O)c3ccc(Cl)cc3)c(=O)c3cc(F)ccc32)cc1`, the IC50 is > 40 µM (inactive).

Turning to `Cc1ccc(-n2cc(-c3noc(C(=O)Nc4ccc(F)cc4C)n3)nn2)cc1`, the IC50 was 7.16 µM.

For `O=C(c1cccnc1)N1CCCC(Cc2cc(-c3ncc[nH]3)ncn2)C1` (stereo not given), the IC50 was > 40 µM (inactive).

On to `CCOc1ccc(-c2noc(-c3nn(-c4cccc(OC)c4)ccc3=O)n2)cc1`, for which the IC50 was 34.1 µM.

With `CNc1nc2c(c(=O)n1C)CN(C(=O)Nc1cccc3ccccc13)CC2`, the IC50 was > 40 µM (inactive).

Take `COc1cccc(N2CCCN(C(=O)c3ccc4nc(C)[nH]c4c3)CC2)c1`: the IC50 was > 40 µM (inactive).

With `COc1ccccc1Nc1ncc(C(=O)NCCc2ccc(Cl)cc2)c2ccccc12`, the IC50 is > 40 µM (inactive).

With `O=C1c2c(O)c(Cl)cc3c2[C@@]2(Oc4ccc(O)c5c4[C@]3(O2)[C@@H]2O[C@@H]2C5=O)[C@@H]2O[C@H]12`, the IC50 was 1.09 µM.

For `COc1ccc(C2(c3nnc(C(C)Oc4ccc(F)cc4)o3)CCOCC2)cc1` (stereo not given), the IC50 is > 40 µM (inactive).

On to `COc1ccc(CC(=O)Nc2c(NCc3ccccc3)c3ccccc3oc2=O)cc1`, for which the IC50 was 38.2 µM.

Consider `O=c1[nH]c(C2CCN(S(=O)(=O)c3ccc(S(=O)(=O)NC4CCCCC4)cc3)CC2)nc2c1nnn2Cc1ccc(F)cc1`, for which the IC50 was > 40 µM (inactive).

On to `CCOc1cccc(-c2noc(-c3nn(-c4ccccc4)ccc3=O)n2)c1`, for which the IC50 was > 40 µM (inactive).

`O=C(c1ccccc1CN1CCOCC1)N1CCOCC2(C1)CN(c1ccc(F)cc1)C(=O)O2` (stereo not given): the IC50 was > 40 µM (inactive).

In the case of `COc1ccc(C)cc1NC(=O)C1CC(=O)Nc2nc3ccccc3n21` (stereo not given), the IC50 was > 40 µM (inactive).

On to `O=C(Cn1c(=O)[nH]c2c(-c3ccc(F)cc3)c[nH]c2c1=O)NCc1ccc(F)cc1`, for which the IC50 was > 40 µM (inactive).

In the case of `COc1ccc(-c2nc(Cn3nnc(C(=O)Nc4ccc(C)c(C)c4)c3N)c(C)o2)cc1`, the IC50 is > 40 µM (inactive).

Regarding `Cc1ncc(CO)c2c1Oc1nc(-c3cccc(Cl)c3)nc(SCC(=O)N3CCCCC3)c1C2`, the IC50 is > 40 µM (inactive).

With `COc1cc(OC)cc(-c2nc(-c3cn(-c4cccc(F)c4)nn3)no2)c1`, the IC50 is 33 µM.

In the case of `Fc1ccccc1-c1nc2c3cnn(-c4ccccc4)c3ncn2n1`, the IC50 was > 40 µM (inactive).

Turning to `CCOC(=O)c1ccc(NC(=O)Cn2c(=O)n(CC(=O)NCc3ccco3)c(=O)c3ccccc32)cc1`, the IC50 is > 40 µM (inactive).

For `CN1CC(c2ncn[nH]2)c2cc(C(=O)NCc3cccc(F)c3)ccc21` (stereo not given), the IC50 was > 40 µM (inactive).

With `CCC(=O)Nc1nc2cc(NC(=O)Nc3cc(C)cc(C)c3)ccc2s1`, the IC50 was > 40 µM (inactive).

With `O=S(=O)(Nc1cccc(O)c1)c1ccc2oc3ccc(S(=O)(=O)Nc4cccc(O)c4)cc3c2c1`, the IC50 was > 40 µM (inactive).

Consider `COc1ccc(-c2nc(-c3cn(-c4ccccc4)nn3)no2)c(OC)c1`, for which the IC50 is > 40 µM (inactive).

Take `Cc1ccc(-n2nc(C)c3c2NC(=O)CC3C(=O)c2cc3ccccc3o2)cc1` (stereo not given): the IC50 is > 40 µM (inactive).

For the molecule `COc1ccc(-c2c(NC(=O)C3COc4ccccc4O3)n[nH]c2C)cc1OC` (stereo not given), the IC50 is 31.3 µM.

For `N#Cc1ccc(NC(=O)Nc2cccn(Cc3c(F)cccc3Cl)c2=O)cc1`, the IC50 is > 40 µM (inactive).

As for `N=C1/C(=C/c2cn(Cc3ccccc3F)c3ccccc23)C(=O)N=C2SC(C(F)(F)F)=NN12`, the IC50 is > 40 µM (inactive).

Take `COc1ccc(-c2cc3nc([C@H](C)NC(=O)Cc4cccc(F)c4)nn3cn2)cc1`: the IC50 was > 40 µM (inactive).

Turning to `Cc1cccc(NC(=O)Nc2ccccc2OCc2cc(=O)n3cccc(C)c3n2)c1`, the IC50 was > 40 µM (inactive).

For the molecule `CC(=O)N1CCc2cc(S(=O)(=O)NC(Cc3ccccc3)C(=O)Nc3cccc(Cl)c3C)ccc21` (stereo not given), the IC50 is > 40 µM (inactive).

On to `O=C(Nc1nc(-c2ccccc2)ns1)c1ccc2ncsc2c1`, for which the IC50 is > 40 µM (inactive).

For the molecule `COc1cc(NC(=O)c2ccc3c(c2)OCO3)ccc1-c1cc2ccccc2oc1=O`, the IC50 was > 40 µM (inactive).

With `O=C(Nc1cccc(Cl)c1)c1cc(-c2cccnc2)n[nH]1`, the IC50 is > 40 µM (inactive).

In the case of `O=C(Nc1ccc2c(c1)OCCO2)C1CCC(Cn2cnc3ccccc3c2=O)CC1` (stereo not given), the IC50 is > 40 µM (inactive).

For `COc1ccc(Nc2nc3c(S(=O)(=O)c4ccc(C)cc4)nnn3c3ccsc23)c(OC)c1`, the IC50 is > 40 µM (inactive).

Take `CC1CCc2c(sc(NC(=O)c3cccc(S(C)(=O)=O)c3)c2C(N)=O)C1` (stereo not given): the IC50 was > 40 µM (inactive).

Turning to `O=C1CSC(c2ccc(F)cc2)c2c(n(C3CCCCCC3)[nH]c2=O)N1` (stereo not given), the IC50 was 31.9 µM.

For the molecule `Cc1cccc(Cl)c1NC(=O)Nc1ccc(NC(=O)c2ccccc2O)cc1`, the IC50 was > 40 µM (inactive).

Take `CCc1ccc(NC(=O)Cc2nnc3cc(-c4nc(C)no4)ccn23)cc1`: the IC50 was 19.6 µM.

As to `N=C1/C(=C/c2cn(Cc3ccc(F)cc3)c3ccccc23)C(=O)N=C2SC(Cc3ccccc3)=NN12`, the IC50 is > 40 µM (inactive).

Consider `COc1ccc(C(=O)COC(=O)c2cccc(NC(=O)c3ccc(Cl)cc3)c2)cc1`, for which the IC50 is > 40 µM (inactive).

Take `COC(=O)c1ccccc1NC(=O)C1CCCN(c2nnc(-n3cccc3)s2)C1` (stereo not given): the IC50 is > 40 µM (inactive).

For `Cc1ccc(NCc2cc3c(-c4cccc(F)c4)nn(-c4ccccc4)c3[nH]c2=O)cc1C`, the IC50 was > 40 µM (inactive).

As for `CCCC(O)CCCCCCCc1cc(O)cc(O)c1C(=O)OC(CCC)CCCCCCCc1cc(O)cc(O)c1` (stereo not given), the IC50 was > 40 µM (inactive).

On to `O=C(c1cscn1)N1CCC2(CC1)CC1(CO2)Nc2ccccc2-n2cccc21` (stereo not given), for which the IC50 was > 40 µM (inactive).

For the molecule `Cc1ccc(NC(=O)CSc2ccc(NC(=O)c3ccc(C(=O)O)cc3C(=O)O)cc2)c(C)c1`, the IC50 was > 40 µM (inactive).

Consider `CCN(CC)C(=O)c1sc(NC(=O)/C=C/c2c(F)cccc2Cl)c(C#N)c1C`, for which the IC50 is > 40 µM (inactive).

In the case of `CCn1cc2c(n1)c(=O)n(Cc1ccccc1)c(=O)n2CC(=O)Nc1ccc(OC)cc1`, the IC50 is > 40 µM (inactive).

Regarding `Cc1ccc(Nc2nc(O)c(CC(=O)Nc3ccc(C)cc3C)s2)cc1`, the IC50 is > 40 µM (inactive).

Turning to `Nc1ccc2oc(-c3cccc(-c4nc5cc(N)ccc5o4)n3)nc2c1`, the half-inhibitory concentration (IC50) was 32.9 µM.

As to `CC1(C)Cc2c(c(-c3ccco3)nc3sc4c(SCCCc5ccccc5)ncnc4c23)CO1`, the IC50 is 24 µM.

As to `Cn1c(=O)n(CCc2ccccc2)c(=O)c2c1nc1n2CCN1Cc1ccccc1`, the IC50 was > 40 µM (inactive).

Take `CCCCNC(=O)C1Sc2nnc(-c3ccccc3)n2NC1c1ccccc1` (stereo not given): the IC50 was > 40 µM (inactive).

`O=C(c1ccc2c(c1)OCO2)[C@@H]1[C@H](C(=O)OC(c2ccccc2)c2ccccc2)N2c3ccccc3C=CC2[C@@]12C(=O)Nc1ccccc12` (stereo not given in full): the IC50 was > 40 µM (inactive).

`O=C(CSc1nnc2c3ccccc3nc(-c3ccco3)n12)N1CCCc2ccccc21`: the IC50 is > 40 µM (inactive).

Consider `c1cncc(-c2cnc3sc(NC4CCCCC4)nn23)c1`, for which the IC50 was > 40 µM (inactive).

`O=C(NCCc1ccccc1)c1ccc2c(=O)n(Cc3ccco3)c(=O)n(Cc3cccc([N+](=O)[O-])c3)c2c1`: the IC50 is 15.4 µM.

Turning to `CSc1ccc(CNC(=O)Cn2nc(C)c3c(C)n(-c4ccccc4)nc3c2=O)cc1`, the IC50 was 19.5 µM.

Take `Cc1cccc(NC(=O)Nc2nnc(CC(=O)NCc3ccccc3)s2)c1`: the IC50 is > 40 µM (inactive).

Take `O=C(CCn1c(=O)c2sccc2n(Cc2ccc([N+](=O)[O-])cc2)c1=O)NCc1ccccc1`: the IC50 is > 40 µM (inactive).

Turning to `Cc1cc(C(=O)NC2(O)C(=O)c3ccccc3C2=O)n(C)n1`, the IC50 is 8.2 µM.

`CC1CCCN(S(=O)(=O)c2ccc(-n3cnc(C(=O)NC4CC4)c3)nc2)C1` (stereo not given): the IC50 was > 40 µM (inactive).

Consider `CCc1cccc(NC(=O)Cc2nnc3ccc(-c4nc(C)no4)cn23)c1`, for which the IC50 was > 40 µM (inactive).

As for `O=S(=O)(Nc1ccc(Oc2ncnc3cc(Cl)ccc23)nc1)c1ccc(S(=O)(=O)c2ccccc2)s1`, the IC50 was > 40 µM (inactive).

For `COc1ccc(S(=O)(=O)NC2CC(=O)N(c3ccc(Cl)cc3)C2)cc1` (stereo not given), the IC50 was > 40 µM (inactive).

With `O=C(Nc1ccc2c(c1)CCC2)C1Cc2ccccc2CN1C(=O)c1ccccc1` (stereo not given), the IC50 is > 40 µM (inactive).

As for `Cc1ccnc(Nc2nc(-c3ccccc3)c3cc(Cl)ccc3n2)n1`, the IC50 was > 40 µM (inactive).
